{"source": "patent US20190247376A1", "about": "“NICOTINIC ACETYLCHOLINE RECEPTOR AGONIST ATTENUATES ILC2-DEPENDENT AIRWAY HYPERREACTIVITY” (University of Southern California, priority 2016, published 2019)", "key": {"Rag2 deficient mice": {"system": "Rag2 deficient mice", "assay": "IL-33-induced ILC2-mediated AHR and airway inflammation in Rag2-deficient mice", "assay_type": "in vivo, mouse", "experimental": "FIGS. 3A-3H: α7nAChR agonist treatment ameliorates ILC2s mediated AHR. (FIG. 3A) Rag2-deficient mice were intranasally challenged with recombinant mouse IL-33 or PBS and also received α7nAChR agonist (125 μg) or PBS on days 1-3 according to scheme 3A. Measurement of lung function and analyses of bronchoalveolar lavage fluid (BALF) and lung histology followed on day 4. (FIGS. 3B-3C) Lung resistance and dynamic compliance. (FIG. 3D) Total number of cells and eosinophils in BALF. (FIG. 3E) Hematoxylin and eosin-stained lung sections (×200). Scale bars represent 50 μm. (FIG. 3F) Quantification of lung histopathology shown as number of inflammatory cells per 250 μm^2 and thickness of airway epithelium (μm). (FIG. 3G) Total number and frequency of lung ILC2s. (FIG. 3H) Percentage of IL-5^+ and IL-13^+ lung ILC2s determined by flow cytometry. Data are representative of at least four independent experiments and are presented as means±SEM (n=8; Student's test *, p<0.05; **, p<0.01; ***, p<0.001).\nAs reported previously^6-9,11,12,34,35, the IL-5 and IL-13 cytokines produced by activated ILC2s are essential for eosinophilic inflammation and AHR development. Applicants investigated whether the attenuated ILC2 function by α7nAChR stimulation in vitro could result in inhibition of ILC2-mediated AHR and allergic inflammation. Rag2 deficient mice (devoid of T and B cells) were given intranasal (i.n.) rm-IL-33, with or without α7nAChR agonist for three consecutive days (FIG. 3A). As IL-33 administration specifically induces ILC2s, thereby causing AHR, with this model Applicants can readily explore the effect of an α7nAChR agonist in ILC2-mediated AHR. One day after the last challenge, lung function was evaluated by direct measurements of lung resistance (RL) and dynamic compliance (Cdyn), as described in the materials and methods section. […] These findings concur with the reduction of AHR and eosinophil counts in BALF (FIGS. 3B-3D). Thus, α7nAChR agonist represses IL-5 and IL-13 production, eosinophil recruitment, and ILC2-dependent AHR.\n(§1) Mice were intranasally (i.n.) administered carrier-free recombinant mouse IL-33 (BioLegend, San Diego Calif., 0.5 µg per mouse in 50 µL) with or without […] of α7nAChR agonist (kindly provided by Lin Chen) on three consecutive days. Mice were intranasally (i.n.) administered carrier-free recombinant mouse IL-25 (BioLegend, San Diego Calif., 5 µg per mouse in 50 µL) with or without […] of α7nAChR agonist on three consecutive days. For Alternaria alternata experiments, mice were i.n. administered Alternaria alternata (Greer Labs, Lenoir, N.C., 100 μg per mouse in 50 μL) with or without 125 µg α7nAChR agonist for four consecutive days. One day after the last challenge, mice were anesthetized using i.p. injection of ketamine (10 mg mL^−1) and xylazine (1 mg mL^−1). Measurements of airway resistance and dynamic compliance were conducted with the Fine Pointe RC System (Buxco Research Systems, Wilmington, N.C.), in which mice were mechanically ventilated using a modified version as previously described^36,67. Mice were sequentially challenged with aerosolized PBS (baseline), followed by increasing doses of methacholine. Maximum lung resistance (RL) and minimum compliance (Cdyn) values were recorded during a three-minute period after each methacholine challenge.\nAfter measurements of AHR, the trachea was canulated and the lungs lavaged three times with 1 mL ice cold PBS to collect BALF cells as previously described^68. […]"}, "Rag2−/− GC−/− mice": {"system": "Rag2−/− GC−/− mice", "assay": "IL-33-induced AHR in Rag2−/− GC−/− mice after adoptive transfer of WT or α7nAChR-deficient ILC2s", "assay_type": "in vivo, mouse", "conditions": "IL-33, agonist 125 μg days 1-3", "experimental": "FIGS. 4A-4E: α7nAChR expression is critical for GTS-21 action on ILC2s in vivo. BALB/cByJ and α7nAChR^−/− mice were intranasally challenged with rm-IL-33 or PBS, and also given α7nAChR agonist (125 μg) or PBS on days 1-3. Measurement of lung function and analysis of BAL followed on day 4. (FIG. 4A) Lung resistance. (FIG. 4B) Total number of eosinophils in BALF. (FIG. 4C) Rag^−/− GC^−/− mice were received ILC2s from either WT or α7nAChR^−/− mice. After the adoptive transfer, mice were intranasally challenged with rm-IL-33 or PBS; they also received α7nAChR agonist (125 μg) or PBS on days 1-3. Measurement of lung function and analysis of BAL followed on day 4, according to scheme 4C. (FIG. 4D) Lung resistance. (FIG. 4E) Total number of eosinophils in BALF. Data are representative of at least three independent experiments and are presented as means±SEM (n=4; Student's test ***, p<0.001, WT IL-33+α7nAChR agonist vs. α7nAChR^−/− IL-33+α7nAChR agonist).\nGiven that a variety of cells participate in allergic inflammation, Applicants wanted to investigate the effect of the agonist specifically on ILC2s. Rag2^−/− GC^−/− mice lack not only B and T cells, but NK cells and ILC2s as well. Using methods previously described by our laboratory^36, Applicants adoptively transferred WT or α7nAChR-deficient ILC2s into these Rag2^−/− GC^−/− mice, and then treated them with IL-33, with or without α7nAChR agonist. As expected, Applicants observed a decrease of AHR and of eosinophil recruitment in mice injected with WT ILC2s in response to α7nAChR treatment (FIGS. 4C-4E).\nas §1, with “Mice were sequentially challenged with aerosolized PBS (baseline), followed by increasing doses of methacholine.” left out"}, "[1]": {"conditions": "i.n. rm-IL-33, agonist 125 μg days 1-3, day 4"}, "[2]": {"conditions": "i.n. rm-IL-33, agonist 125 μg days 1-3, measured day 4"}, "[3]": {"conditions": "i.n. rm-IL-33, agonist 125 μg days 1-3, vs untreated mice"}, "[4]": {"conditions": "Rag2−/− GC−/− mice injected with WT ILC2s"}, "[5]": {"conditions": "Rag2−/− GC−/− mice injected with α7nAChR-deficient ILC2s"}}}
{"compound": "COc1ccc(/C=C2\\CCCN=C2c2cccnc2)c(OC)c1", "note": "[GTS-21, 3-[(3E)-3-[(2,4-dimethoxyphenyl)methylidene]-5,6-dihydro-4H-pyridin-2-yl]pyridine]", "values": [{"measurement": "absolute number of lung ILC2s", "setting": "Rag2 deficient mice; [1]", "value": "significantly suppressed"}, {"measurement": "airway wall thickness (lung histology)", "setting": "Rag2 deficient mice; [1]", "value": "prevented"}, {"measurement": "eosinophilic infiltration in BALF", "setting": "Rag2 deficient mice; [1]", "value": "decreased"}, {"measurement": "frequency of lung ILC2s", "setting": "Rag2 deficient mice; [1]", "value": "significantly suppressed"}, {"measurement": "infiltrated cells (lung histology)", "setting": "Rag2 deficient mice; [1]", "value": "prevented"}, {"measurement": "total cell counts (TCC) in BALF", "setting": "Rag2 deficient mice; [1]", "value": "decreased"}, {"measurement": "dynamic compliance (Cdyn)", "setting": "Rag2 deficient mice; [2]", "value": "significantly reduced"}, {"measurement": "lung resistance (RL)", "setting": "Rag2 deficient mice; [2]", "value": "significantly reduced"}, {"measurement": "IL-5 producing lung ILC2s (intracellular cytokine assay)", "setting": "Rag2 deficient mice; [3]", "value": "significantly decreased"}, {"measurement": "IL-13 producing lung ILC2s (intracellular cytokine assay)", "setting": "Rag2 deficient mice; [3]", "value": "significantly decreased"}, {"measurement": "AHR", "setting": "Rag2−/− GC−/− mice; [4]", "value": "decrease"}, {"measurement": "eosinophil recruitment", "setting": "Rag2−/− GC−/− mice; [4]", "value": "decrease"}, {"measurement": "AHR", "setting": "Rag2−/− GC−/− mice; [5]", "value": "affected neither AHR nor eosinophilia"}, {"measurement": "eosinophilia", "setting": "Rag2−/− GC−/− mice; [5]", "value": "affected neither AHR nor eosinophilia"}]}
